{"source": "paper PMC9837035", "about": "(Nature Communications, 2023)", "key": {"H3K9me2 in HUDEP-2 cells": {"tested_on": "H3K9me2 in HUDEP-2 cells", "experiment": "Western blotting of H3K9me2 in HUDEP-2 cells", "assay_type": "cell-based, human", "settings": "HUDEP-2, 4 days", "protocol": "(§1) Preparation of cell lysates and western blotting were performed as described previously. Protein from cells lysates in lysis buffer (50 mM Tris-HCl (pH 7.5), 150 mM NaCl, 5 mM EDTA, 0.1% NP-40, 1 mM dithiothreitol) were separated by sodium dodecyl sulfate–polyacrylamide gel electrophoresis (SDS-PAGE) and transferred to a polyvinylidene difluoride (PVDF) membrane (Millipore) by electroblotting. The membranes incubated with primary antibodies overnight at 4 °C and secondary antibodies for 1 h at room temperature. The immune complexes were detected with the Immobilon Western Chemiluminescent HRP Substrate (Millipore). Luminescence was analyzed on a FUSION SOLO S (Vilber). Western blot bands were visualized using Evolution Capt software (M&S Instruments Inc.). Primary antibodies used were anti-G9a (1:1000, CST, #3306), anti–α-tubulin (1:5000, Abcam, ab18251), anti-H3K9me2 (1:3000, Abcam, ab1220), anti-H3 (1:5000, Abcam, ab1791), anti-H3K27me3 (1:3000, Sigma, 07-449), anti-GLP (1:1000, CST, #35005), anti-FLAG (100 ng/ml, Fujifilm, 01422383), anti-His (1:5000, MBL, PM032), anti-BCL11A (1:1000, abcam, ab19487), anti-ZBTB7A (1:1000, CST, #50565), anti-CHD3 (1:1000, Novus Biologicals, NB100-60412), and anti-CHD4 (1:1000, abcam, ab240640). Uncropped scans of all of the blots are available in Source Data file."}, "[1]": {"tested_on": "G9a and GLP in HUDEP-2 cells", "experiment": "Western blotting of G9a and GLP levels in HUDEP-2 cells", "assay_type": "cell-based, human", "protocol": "as §1"}, "[2]": {"tested_on": "CHD3 and CHD4 occupancy at the BGLT3 gene locus", "experiment": "ChIP-qPCR with antibodies against CHD3 or CHD4 in HUDEP-2 cells", "assay_type": "cell-based, human", "settings": "HUDEP-2, 1 μM, 4 days", "protocol": "A total of 0.5–1 × 10^6 cells were cross-linked with 1% formaldehyde for 10 min at room temperature and the reaction was quenched with 250 mM glycine. Cross-linked cells were then lysed with buffer 1 (15 mM Tris-HCl (pH 7.5), 60 mM KCl, 15 mM NaCl, 5 mM MgCl2, 0.1 mM EGTA, 300 mM sucrose, […], 1 mM phenylmethanesulfonyl fluoride (PMSF), 0.5% NP40) and incubated on ice for 10 min. After centrifugation, the pellet was re-suspended in buffer 2 (15 mM Tris-HCl (pH 7.5), 60 mM KCl, 15 mM NaCl, 5 mM MgCl2, 0.1 mM EGTA, 1.2 M sucrose, […], 1 mM PMSF). After centrifugation, the pellet was then re-suspended in MNase buffer (50 mM Tris-HCl (pH 7.5), 1 mM CaCl2, 4 mM MgCl2, 320 mM sucrose, 1 mM PMSF) and digested with 100 U of micrococcal nuclease (Takara) at 37 °C for 15 min. […] The samples were analyzed by qPCR. […] ChIP-seq analysis were analyzed Cutadapt (V1.9.1) for QC, FastQC (V0.10.1) for QC assessment, Bowtie (V2.1.0) for mapping, strand cross-correlation (SCC) for ChIP quality assessment, MACS2 for peak calling, and R package ChIPpeakAnno for Peak annotated."}, "CD34+ cells": {"tested_on": "CD34+ cells", "experiment": "Flow cytometry of erythroid differentiation (CD45, glycophorin A)", "assay_type": "cell-based, human", "protocol": "For the analysis of HbF expression, HUDEP-2 cells or cells differentiated from human CD34 + progenitor cells were fixed in 0.05% glutaraldehyde for 10 min, then washed two times with PBS containing 2% FBS (PBS/2% FBS) and permeabilized with 0.1% Triton X-100 (prepared in PBS/2% FBS; Life Technologies) for 5 min. After washing with PBS/2% FBS two times, cells were stained with allophycocyanin (APC)-conjugated HbF antibody (1:1, Invitrogen, MHFH05). One million cells were incubated with the HbF–APC antibody for 30 min in the dark at 4 °C. Cells were washed twice with PBS/2% FBS, then suspended in 0.2 ml PBS/2% FBS and analyzed using a FACSCalibur (Becton Dickinson). To assess erythroid differentiation, hematopoietic cells differentiated from human CD34 cells were stained with FITC-conjugated CD45 antibody (1:1, Becton Dickinson, 555482) and APC-conjugated glycophorin A antibody (1:20, Becton Dickinson, 551336). Stained cells were suspended in 0.2 ml PBS/2% FBS containing 1 μg/ml propidium iodide (Sigma) and analyzed by FACSCalibur. The results of flow cytometer were further analyzed by FlowJo software (Becton Dickinson)."}, "PRMT7": {"target": "PRMT7 (Homo sapiens, UniProt Q9NVM4)", "sequence (Q9NVM4 whole entry)": "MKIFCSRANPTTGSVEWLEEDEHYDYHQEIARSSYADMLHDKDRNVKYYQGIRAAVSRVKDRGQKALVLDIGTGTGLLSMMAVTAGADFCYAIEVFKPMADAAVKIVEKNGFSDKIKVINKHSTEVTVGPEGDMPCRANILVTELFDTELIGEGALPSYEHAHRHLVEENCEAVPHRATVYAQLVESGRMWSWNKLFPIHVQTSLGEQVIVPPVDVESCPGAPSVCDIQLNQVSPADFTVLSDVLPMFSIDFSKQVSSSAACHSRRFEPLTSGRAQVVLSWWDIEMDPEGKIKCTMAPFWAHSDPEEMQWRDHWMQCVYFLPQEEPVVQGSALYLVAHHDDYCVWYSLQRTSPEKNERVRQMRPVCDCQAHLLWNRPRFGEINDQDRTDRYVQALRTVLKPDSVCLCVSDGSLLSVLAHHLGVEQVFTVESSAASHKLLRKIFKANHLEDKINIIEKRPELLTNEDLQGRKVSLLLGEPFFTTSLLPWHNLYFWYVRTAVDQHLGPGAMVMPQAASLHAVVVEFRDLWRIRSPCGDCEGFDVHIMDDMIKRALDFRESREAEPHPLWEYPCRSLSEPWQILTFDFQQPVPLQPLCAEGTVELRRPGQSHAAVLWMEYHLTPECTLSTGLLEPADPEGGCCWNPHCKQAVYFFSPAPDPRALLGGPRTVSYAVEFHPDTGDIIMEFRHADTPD"}, "EZH2": {"target": "EZH2 (Homo sapiens, UniProt Q15910)", "sequence (Q15910 whole entry)": "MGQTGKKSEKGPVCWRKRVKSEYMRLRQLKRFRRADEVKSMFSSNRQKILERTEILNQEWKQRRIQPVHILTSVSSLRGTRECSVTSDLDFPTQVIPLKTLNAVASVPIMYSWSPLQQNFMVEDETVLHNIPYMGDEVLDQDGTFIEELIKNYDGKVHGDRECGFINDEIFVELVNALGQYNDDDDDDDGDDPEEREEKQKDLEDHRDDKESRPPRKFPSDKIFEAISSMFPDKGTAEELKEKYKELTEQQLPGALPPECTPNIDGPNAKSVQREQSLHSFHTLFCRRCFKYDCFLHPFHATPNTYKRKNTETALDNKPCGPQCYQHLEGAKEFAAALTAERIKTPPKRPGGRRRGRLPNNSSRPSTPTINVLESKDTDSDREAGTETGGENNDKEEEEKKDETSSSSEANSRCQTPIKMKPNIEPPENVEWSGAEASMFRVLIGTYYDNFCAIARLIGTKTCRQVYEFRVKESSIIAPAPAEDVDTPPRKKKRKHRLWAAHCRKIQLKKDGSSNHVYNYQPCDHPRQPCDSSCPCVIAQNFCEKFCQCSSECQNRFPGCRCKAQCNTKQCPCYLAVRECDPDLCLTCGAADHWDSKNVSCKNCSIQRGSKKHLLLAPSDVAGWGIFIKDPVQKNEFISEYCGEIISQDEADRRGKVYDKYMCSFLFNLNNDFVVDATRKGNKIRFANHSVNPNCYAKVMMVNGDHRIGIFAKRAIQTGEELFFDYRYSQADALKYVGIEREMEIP", "sequence (O75530 whole entry partner)": "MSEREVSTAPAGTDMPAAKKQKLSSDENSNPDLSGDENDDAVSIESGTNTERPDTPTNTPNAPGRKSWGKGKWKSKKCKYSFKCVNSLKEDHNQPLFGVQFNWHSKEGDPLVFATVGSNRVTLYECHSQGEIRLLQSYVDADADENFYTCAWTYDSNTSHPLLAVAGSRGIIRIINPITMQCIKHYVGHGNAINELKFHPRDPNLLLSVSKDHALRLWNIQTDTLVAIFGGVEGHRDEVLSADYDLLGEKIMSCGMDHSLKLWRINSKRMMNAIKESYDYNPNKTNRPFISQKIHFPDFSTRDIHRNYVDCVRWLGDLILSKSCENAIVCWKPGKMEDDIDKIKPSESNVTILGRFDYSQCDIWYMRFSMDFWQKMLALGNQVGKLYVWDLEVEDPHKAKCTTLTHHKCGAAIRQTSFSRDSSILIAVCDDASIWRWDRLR", "sequence (Q15022 whole entry partner)": "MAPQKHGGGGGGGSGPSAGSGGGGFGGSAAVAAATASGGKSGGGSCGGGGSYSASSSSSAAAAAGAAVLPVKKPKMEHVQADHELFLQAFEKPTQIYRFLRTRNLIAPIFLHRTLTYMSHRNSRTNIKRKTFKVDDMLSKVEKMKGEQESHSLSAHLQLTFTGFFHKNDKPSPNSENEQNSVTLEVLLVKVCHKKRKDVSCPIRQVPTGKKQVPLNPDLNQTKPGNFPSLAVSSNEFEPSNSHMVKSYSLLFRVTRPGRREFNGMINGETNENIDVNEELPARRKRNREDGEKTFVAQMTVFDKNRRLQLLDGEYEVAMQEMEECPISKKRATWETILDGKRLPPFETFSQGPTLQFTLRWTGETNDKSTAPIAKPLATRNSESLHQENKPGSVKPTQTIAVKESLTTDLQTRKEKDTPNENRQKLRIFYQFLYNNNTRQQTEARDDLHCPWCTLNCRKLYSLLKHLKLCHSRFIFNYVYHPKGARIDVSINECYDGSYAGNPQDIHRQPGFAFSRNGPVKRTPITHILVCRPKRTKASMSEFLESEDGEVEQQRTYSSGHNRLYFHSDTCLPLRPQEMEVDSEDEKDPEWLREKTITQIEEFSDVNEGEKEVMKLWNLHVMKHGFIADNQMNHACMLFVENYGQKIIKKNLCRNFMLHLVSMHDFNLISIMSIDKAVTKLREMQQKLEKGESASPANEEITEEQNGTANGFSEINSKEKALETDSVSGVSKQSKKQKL", "sequence (Q09028 whole entry partner)": "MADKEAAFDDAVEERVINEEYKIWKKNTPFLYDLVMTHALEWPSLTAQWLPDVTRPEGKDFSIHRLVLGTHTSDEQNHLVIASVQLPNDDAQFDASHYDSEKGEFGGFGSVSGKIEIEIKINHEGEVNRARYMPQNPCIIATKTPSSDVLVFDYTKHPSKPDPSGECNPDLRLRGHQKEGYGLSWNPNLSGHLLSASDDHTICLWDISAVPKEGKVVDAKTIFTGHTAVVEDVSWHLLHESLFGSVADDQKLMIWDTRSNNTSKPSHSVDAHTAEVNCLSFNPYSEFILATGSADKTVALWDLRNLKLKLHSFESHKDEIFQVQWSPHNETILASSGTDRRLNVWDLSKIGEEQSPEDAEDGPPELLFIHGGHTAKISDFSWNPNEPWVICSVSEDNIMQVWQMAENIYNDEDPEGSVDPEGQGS", "sequence (Q6ZN18 whole entry partner)": "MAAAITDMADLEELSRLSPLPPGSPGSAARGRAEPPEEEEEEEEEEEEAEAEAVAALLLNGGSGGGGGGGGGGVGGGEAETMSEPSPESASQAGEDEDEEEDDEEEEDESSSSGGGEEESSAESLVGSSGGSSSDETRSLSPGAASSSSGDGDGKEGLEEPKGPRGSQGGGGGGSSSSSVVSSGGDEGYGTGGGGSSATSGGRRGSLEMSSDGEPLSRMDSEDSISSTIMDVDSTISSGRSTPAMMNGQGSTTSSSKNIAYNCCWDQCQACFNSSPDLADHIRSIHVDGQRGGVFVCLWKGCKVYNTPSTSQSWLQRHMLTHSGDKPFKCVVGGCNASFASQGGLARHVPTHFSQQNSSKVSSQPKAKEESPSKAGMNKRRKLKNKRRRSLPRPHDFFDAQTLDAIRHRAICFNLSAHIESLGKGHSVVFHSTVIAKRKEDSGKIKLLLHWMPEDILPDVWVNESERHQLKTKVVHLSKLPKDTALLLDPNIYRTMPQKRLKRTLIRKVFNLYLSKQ", "experiment": "biochemical"}, "NSD2 (E1099K)": {"target": "NSD2 (E1099K) (Homo sapiens, UniProt O96028, E1099K)", "sequence (O96028 whole entry E1099K)": "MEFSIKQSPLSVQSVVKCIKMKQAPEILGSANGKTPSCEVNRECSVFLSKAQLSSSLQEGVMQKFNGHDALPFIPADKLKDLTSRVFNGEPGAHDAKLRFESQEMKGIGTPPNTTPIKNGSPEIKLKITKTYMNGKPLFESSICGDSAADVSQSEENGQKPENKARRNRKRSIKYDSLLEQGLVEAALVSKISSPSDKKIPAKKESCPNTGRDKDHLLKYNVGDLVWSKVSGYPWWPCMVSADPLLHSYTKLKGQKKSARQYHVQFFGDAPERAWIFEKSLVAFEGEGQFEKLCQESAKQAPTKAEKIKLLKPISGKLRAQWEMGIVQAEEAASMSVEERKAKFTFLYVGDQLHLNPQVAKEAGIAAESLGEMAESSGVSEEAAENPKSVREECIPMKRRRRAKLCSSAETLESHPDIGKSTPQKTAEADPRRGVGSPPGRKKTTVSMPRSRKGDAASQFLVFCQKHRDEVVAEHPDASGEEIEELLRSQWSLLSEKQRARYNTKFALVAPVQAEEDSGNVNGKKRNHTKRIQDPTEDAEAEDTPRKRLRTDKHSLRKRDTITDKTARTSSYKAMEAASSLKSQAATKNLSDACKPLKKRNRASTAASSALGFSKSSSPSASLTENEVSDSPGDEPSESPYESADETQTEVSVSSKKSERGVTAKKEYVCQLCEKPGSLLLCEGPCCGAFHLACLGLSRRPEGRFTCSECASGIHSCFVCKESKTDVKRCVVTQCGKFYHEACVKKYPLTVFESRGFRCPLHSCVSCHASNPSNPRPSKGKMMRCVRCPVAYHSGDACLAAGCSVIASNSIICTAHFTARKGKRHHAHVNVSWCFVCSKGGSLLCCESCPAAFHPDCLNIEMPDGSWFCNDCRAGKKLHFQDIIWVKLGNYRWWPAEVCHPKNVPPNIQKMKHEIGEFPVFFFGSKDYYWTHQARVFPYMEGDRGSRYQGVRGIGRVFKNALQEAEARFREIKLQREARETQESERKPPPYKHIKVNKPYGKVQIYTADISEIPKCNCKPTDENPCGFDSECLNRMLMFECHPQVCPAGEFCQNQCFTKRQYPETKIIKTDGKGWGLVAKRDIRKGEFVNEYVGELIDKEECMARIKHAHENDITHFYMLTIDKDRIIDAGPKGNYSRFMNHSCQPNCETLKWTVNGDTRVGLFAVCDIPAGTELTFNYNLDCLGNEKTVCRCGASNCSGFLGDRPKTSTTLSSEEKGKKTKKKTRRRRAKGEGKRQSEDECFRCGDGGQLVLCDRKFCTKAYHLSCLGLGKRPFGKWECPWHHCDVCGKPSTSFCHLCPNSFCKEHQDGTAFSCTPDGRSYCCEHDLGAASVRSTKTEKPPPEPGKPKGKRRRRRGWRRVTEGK", "experiment": "Radioisotope-based methyltransferase assay (selectivity)"}}, "data": [{"smiles": "Cc1c(C(=O)NC(CCC2CC2)C(=O)Nc2ccc(C#N)cc2)[nH]c2c1C(=O)CC(C)(C)C2", "note": "(stereo not shown) [RK-701]", "values": [{"measurement": "cellular H3K9me2 levels", "setting": "H3K9me2 in HUDEP-2 cells", "value": "dose-dependent reduction"}, {"measurement": "expression levels of G9a and GLP", "setting": "[1]", "value": "did not affect"}, {"measurement": "occupancy of CHD4 on the BGLT3 gene locus", "setting": "[2]", "value": "significantly decreased"}, {"measurement": "erythroid differentiation", "setting": "CD34+ cells", "value": "without affecting cell viability or erythroid differentiation"}, {"measurement": "IC50", "setting": "PRMT7", "value": "> 100", "unit": "µM"}, {"measurement": "IC50", "setting": "EZH2", "value": "> 100", "unit": "µM"}, {"measurement": "IC50", "setting": "NSD2 (E1099K)", "value": "> 100", "unit": "µM"}]}]}
